What was measured:
[1] = Half-life in human; format: ADME
[2] = Half-life in iv dosed human; format: ADME, organism-based; conditions: in vivo

Work on `CCCC(=O)OCOC(=O)C1=C(C)NC(C)=C(C(=O)OC)C1c1cccc(Cl)c1Cl` (centres undefined) [CLEVIDIPINE] yielded a half-life [1] of about 1 min.
In the case of `CC1(C)OC[C@@H](COC(=O)CCc2ccc(OC[C@@H](O)CNCCNC(=O)N3CCOCC3)cc2)O1` [LANDIOLOL], the half-life [1] is reported as about 4 min.
`CN(C)CCc1c[nH]c2ccccc12` [N,N-DIMETHYLTRYPTAMINE] showed a half-life [1] of about 10 min.
`COC(=O)CCc1ccc(OCC(O)CNC(C)C)cc1` (centres undefined) [ESMOLOL] gave a half-life [2] of about 9 min.
